Experimental data reported in BindingDB's records for PubMed 32698113 (Sichuan University, 2020).

Assay: Inhibition of human neutrophil elastase activity assessed as reduction in […]

COc1cc2c(c3c1CCC(c1ccccc1)O3)C1C3C(c4ccc(O)c(C)c4OC)C(C(O)(OC)c4ccccc4)C14C(C=CC(=O)C4OC)OC3(c1ccccc1)O2 (stereo unspecified)
IC50: > 10 µM
